Measured values taken from publication PMC10766854 (Frontiers in Pharmacology, 2023).
Blank lines part the entries; values can stand above or below the compound they belong to.

Key:
[1] = Safety and tolerability assessment (adverse events) in the crossover trial; format: in vivo, human; conditions: single s.c. 0.6 mg
Description: Subjects receiving the study drug were included in the safety assessment. The safety assessment included physical examination, vital signs (pre-dose and 1, 3, 12, 24, 48, and 72 h after administration of the study drug in the first and second cycles), laboratory tests, 12-lead electrocardiograms (pre-dose and 3, 24, 48, and 72 h after administration of the study drug in the first and second cycles), and blood glucose monitoring. Laboratory safety assessments were completed at the laboratory of Zhongshan Hospital, Fudan University, including routine blood, blood biochemistry, thyroid function, coagulation function, and urine routine tests. All adverse reactions were coded using MedDRA 21.0 terminology and categorized and analyzed according to SOC/PT.

[2] = ref US Food and Drug Administration, 2017, cited from earlier work
Description: In five double-blind clinical trials of 26 weeks or longer, the incidence of gastrointestinal adverse reactions in patients was reported to be 41% in the liraglutide treatment group and was dose-related ([US Food and Drug Administration, 2017]). This is consistent with the pharmacodynamic profile of GLP-1R agonist-related drugs. […] In five clinical trials of 26 weeks or longer ([US Food and Drug Administration, 2017]), approximately 50%–70% of Victoza-treated patients were tested for anti-liraglutide antibodies at the end of treatment. Approximately 8.6% of the liraglutide-treated group were detected with low-titer (no serum concentration dilution required) anti-liraglutide antibodies. When comparing all antibody-positive and all antibody-negative patients, antibody formation wa ...

[3] = Pharmacokinetics and bioequivalence after a single subcutaneous injection, plasma liraglutide by LC-MS/MS; format: in vivo, human; conditions: single s.c. 0.6 mg, N = 36
Description: This trial was designed as a randomized, open, two-cycle, self-crossover trial. Screening was performed within 28 days prior to dosing, and eligible subjects were admitted to the Phase I Clinical Trial Ward in the afternoon of the first day prior to dosing and fasted for 10 h overnight after dinner. […] A total of 18 subjects received the test formulation in the first cycle, and the other 18 subjects received the reference formulation for administration and were crossover-administered for the second cycle of the study after a 14-day washout period. Drinking water was restricted for 1 h before and 1 h after dosing, water was drunk as needed at all other times, and a standardized nutritious meal was uniformly provided at least 4 h after dosing. The subjects were discharged from the hospital on the third day after dosing. Follow-up examinations were performed 72 h after the last dose of the second cycle.
After collection, the tubes were inverted six times, centrifuged at 4°C, 1,460 g for 10 min, and the plasma was aliquoted and placed it the numbered cryopreservation tube. Plasma samples were stored in a refrigerator at −80°C before analysis.
Waters ACQUITY UPLC (Waters Corporation, United States) and AB Triple Quad 6500+ Mass Spectrometer (SCIEX Technologies, United States) combined with an electrospray ionization source were used for LC-MS/MS analysis. […] The chromatographic separation was performed on a C18 column (Waters) at 60°C with a flow rate of 600 μL/min. The mobile phase A was 0.025% formic acid aqueous solution (v/v), and the mobile phase B was 0.025% formic acid acetonitrile aqueous solution (v/v). The linear range, limit of quantification, accuracy, precision, recovery, selectivity, and stability of the method were verified. […] In the concentration data listings, all missing data are indicated as “-” or NA (not applicable).
The pharmacokinetic parameters, including Tmax, Cmax, AUC0-t, AUC0-∞, t1/2z, AUC_%Extrap, Vz/F, and CLz/F, were calculated using the non-compartmental model of WinNonlin 7.0. Descriptive statistical analysis was performed on PK parameters, and the arithmetic mean, standard deviation, coefficient of variation, maximum, minimum, and geometric mean of each parameter were calculated. If AUC_%Extrap >20%, the subject’s AUC0-∞, t1/2z, Vz/F, and CLz/F were not to be used for descriptive statistical analysis.
Based on the blood concentration data, SAS 9.4 was used for statistical analysis. Cmax, AUC0-t, AUC0-∞, t1/2z, CLz/F, and Vz/F were logarithmically transformed and then analyzed using variance analysis (ANOVA). […] Two one-sided tests were performed for each parameter, and 90% CI of the geometric mean ratio (GMR) of the pharmacokinetic parameters (T/R) was calculated.

[4] = ref US Food and Drug Administration, 2017, cited from earlier work; remark: listed apart in the source
Description: The lower dose on the steeper portion of the exposure–effect curve in healthy subjects was chosen to assess the difference between the subject drug and the reference drug ([CDER, 2014]), and therefore, 0.6 mg was selected as the dose to be administered in this comparative trial.

[5] = Stability of analyte solutions and prepared samples, LC-MS/MS method validation; format: physicochemical; conditions: room temperature
Description: Plasma concentrations of liraglutide were analyzed using a validated, sensitive, and specific liquid chromatography–tandem mass spectrometry (LC-MS/MS) method developed by Shanghai WuXi AppTec New Drug Development Co. (Shanghai, China). Waters ACQUITY UPLC (Waters Corporation, United States) and AB Triple Quad 6500+ Mass Spectrometer (SCIEX Technologies, United States) combined with an electrospray ionization source were used for LC-MS/MS analysis. The internal standard of liraglutide was developed in-house. The chromatographic separation was performed on a C18 column (Waters) at 60°C with a flow rate of 600 μL/min. […] The linear range, limit of quantification, accuracy, precision, recovery, selectivity, and stability of the method were verified. The linear range of the analytical method for the determination of liraglutide in plasma was 1.00–250 ng/mL, and the lower limit of quantification (LLOQ) was 1.00 ng/mL. […] The analyte recoveries were determined using three gradients, high, medium, and low, with mean values of 48.0%, 47.6%, and 57.8%, respectively, corresponding to CVs of less than 8% and 57.3 for IS, corresponding to a CV of 5.1%. […] During analysis, plasma concentrations of liraglutide below the limit of quantification were listed as zero and missing values in PK samples before and after Tmax, respectively. […]

dipeptidyl dipeptidase-4 = conditions: endogenous GLP-1, easily degraded by dipeptidyl dipeptidase-4; ref Drucker, 2003; cited from earlier work
Excerpt: GLP-1 is an endogenous incretin hormone secreted primarily by intestinal L-cells ([Drucker, 2006]; [Baggio and Drucker, 2007]; [Müller et al., 2019]), which is involved in the regulation of glucose homeostasis through GLP-1R, a G-protein-coupled receptor, in a variety of ways, mainly including stimulation of insulin secretion in a glucose-dependent manner, inhibition of glucagon secretion, reduction of appetite, slowing down of gastric emptying ([Drucker and Nauck, 2006]; [Hare et al., 2010]), enhancement of insulin sensitivity ([Fernández-Millán et al., 2016]; [Capuani et al., 2018]; [Jiang e ...

[6] = healthy Chinese subjects, N = 36
[7] = single dose 0.6 mg subcutaneously

- Vd/F ([3]; human, in vivo, sc, healthy Chinese subjects, plasma LC-MS/MS, non-compartmental, mean ± SD (%CV), read-out: Vz/F (apparent volume of distribution)): 8.34 L
- Geometric mean ratio (T/R) of Cmax ([3]; test liraglutide injection versus Victoza, equivalence interval 80.00%–125.00%, 90% CI 99.54–108.10): 103.73%
- Geometric mean ratio (T/R) of AUC0-t ([3]; test liraglutide injection versus Victoza, equivalence interval 80.00%–125.00%, 90% CI 99.85–106.26): 103.01%
- Geometric mean ratio (T/R) of AUC0-∞ ([3]; test liraglutide injection versus Victoza, equivalence interval 80.00%–125.00%, 90% CI 100.04–106.11): 103.03%
- Short-term stability (ULOQ) of the working solution ([5]; aqueous mixture of formic acid and acetonitrile): 146.9 h
- Stability of the biological samples after preparation ([5]; prepared plasma samples): 21.5 h
Compound: CCCCCCCCCCCCCCCC(=O)N[C@@H](CCC(=O)NCCCC[C@H](NC(=O)[C@H](C)NC(=O)[C@H](C)NC(=O)[C@H](CCC(N)=O)NC(=O)CNC(=O)[C@H](CCC(=O)O)NC(=O)[C@H](CC(C)C)NC(=O)[C@H](Cc1ccc(O)cc1)NC(=O)[C@H](CO)NC(=O)[C@H](CO)NC(=O)[C@@H](NC(=O)[C@H](CC(=O)O)NC(=O)[C@H](CO)NC(=O)[C@@H](NC(=O)[C@H](Cc1ccccc1)NC(=O)[C@@H](NC(=O)CNC(=O)[C@H](CCC(=O)O)NC(=O)[C@H](C)NC(=O)[C@@H](N)Cc1cnc[nH]1)[C@@H](C)O)[C@@H](C)O)C(C)C)C(=O)N[C@@H](CCC(=O)O)C(=O)N[C@@H](Cc1ccccc1)C(=O)N[C@H](C(=O)N[C@@H](C)C(=O)N[C@@H](Cc1c[nH]c2ccccc12)C(=O)N[C@@H](CC(C)C)C(=O)N[C@H](C(=O)N[C@@H](CCCNC(=N)N)C(=O)NCC(=O)N[C@@H](CCCNC(=N)N)C(=O)NCC(=O)O)C(C)C)[C@@H](C)CC)C(=O)O [Liraglutide, liraglutide]
- Tolerability (in words) ([1]; healthy Chinese subjects): well tolerated
- AEs leading to exit, Instance [1, 6]: 0
- AEs of grade 1 and above, Instance [1, 6]: 0
- Blurred right vision, Instance [1, 6]: 0
- Elevated blood glucose, Instance [1, 6]: 0
- Elevated free thyroxine, Instance [1, 6]: 1
- Elevated hypersensitivity thyroid-stimulating hormone, Instance [1, 6]: 1
- Hyperuricemia, Instance [1, 6]: 1
- Increased alanine aminotransferase, Instance [1, 6]: 0
- Increased urine leukocytes, Instance [1, 6]: 0
- Leukocyte increase, Instance [1, 6]: 1
- Serious AEs, Instance [1, 6]: 0
- AEs leading to exit, Number of cases (n%) ([1]; proportion of subjects, N = 36): 0%
- AEs of grade 1 and above, Number of cases (n%) ([1]; proportion of subjects, N = 36): 0%
- Blurred right vision, Number of cases (n%) ([1]; proportion of subjects, N = 36): 0%
- Elevated blood glucose, Number of cases (n%) ([1]; proportion of subjects, N = 36): 0%
- Elevated free thyroxine, Number of cases (n%) ([1]; proportion of subjects, N = 36): 2.78%
- Elevated hypersensitivity thyroid-stimulating hormone, Number of cases (n%) ([1]; proportion of subjects, N = 36): 2.78%
- Hyperuricemia, Number of cases (n%) ([1]; proportion of subjects, N = 36): 2.78%
- Increased alanine aminotransferase, Number of cases (n%) ([1]; proportion of subjects, N = 36): 0%
- Increased urine leukocytes, Number of cases (n%) ([1]; proportion of subjects, N = 36): 0%
- Leukocyte increase, Number of cases (n%) ([1]; proportion of subjects, N = 36): 2.78%
- Serious AEs, Number of cases (n%) ([1]; proportion of subjects, N = 36): 0%
- Total AEs, Number of cases (n%) ([1]; proportion of subjects, N = 36): 8.33%
- Number of adverse reactions / AEs ([1]; 36 subjects per group): four
- Number of possible related adverse reactions (times) ([1]; 36 subjects per group): three
- Subjects with adverse reactions (proportion) ([1]; 36 subjects per group): 8.33%
- Subjects with adverse reactions / AEs (number of subjects) ([1]; 36 subjects per group): Three
- Subjects with possible related adverse reactions (number of subjects) ([1]; 36 subjects per group): two
- Subjects with possible related adverse reactions (proportion) ([1]; 36 subjects per group): 5.56%
- Proportion of treated group with low-titer anti-liraglutide antibodies ([2]; five clinical trials of 26 weeks or longer, end of treatment): Approximately 8.6%
- Incidence of gastrointestinal adverse reactions ([2]; patients, five double-blind clinical trials of 26 weeks or longer, dose-related): 41%
- Mean apparent volume of distribution [4, 7]: approximately 13 L
- Mean peak (Cmax) [4, 7]: 35 ng/mL
- Time to maximum concentration after dosing [4, 7]: 8 to 12 h
- Total exposure (AUC) [4, 7]: 960 ng·h/mL
- Mean apparent clearance ([4]; single dose, subcutaneous administration): approximately 1.2 L/h

Compound: GLP-1: Endogenous incretin hormone secreted primarily by intestinal L-cells
- Effective half-life (dipeptidyl dipeptidase-4): only a few minutes
